Results as given in patent publication US10112906B2, “1-aryl-3-alkylpyrazole insecticides” (E. I. DU PONT DE NEMOURS AND COMPANY, priority 2013, dated 2018).

How the values were obtained:
Format in all cases: in vivo
[1] = system: diamondback moth (Plutella xylostella (L.)); assay: Test A: control of diamondback moth, foliar spray on mustard plant; details: neonate larvae, assessed after 6 days
Method: (§1) Test compounds were formulated using a solution containing 10% acetone, 90% water and 300 ppm X-77® Spreader Lo-Foam Formula non-ionic surfactant containing alkylarylpolyoxyethylene, free fatty acids, glycols and isopropanol (Loveland Industries, Inc. Greeley, Colo., USA). The formulated compounds were applied in 1 mL of liquid through a SUJ2 atomizer nozzle with ⅛ JJ custom body (Spraying Systems Co. Wheaton, Ill., USA) positioned 1.27 cm (0.5 inches) above the top of each test unit. Test compounds were sprayed at the rates indicated, and each test was replicated three times.
For evaluating control of diamondback moth (Plutella xylostella (L.)) the test unit consisted of a small open container with a 12-14-day-old mustard plant inside. This was pre-infested with ˜50 neonate larvae that were dispensed into the test unit via corn cob grits using an inoculator. The larvae moved onto the test plant after being dispensed into the test unit.
Test compounds were formulated and sprayed at 250 and/or 50 ppm. After spraying of the formulated test compound, each test unit was allowed to dry for 1 hour and then a black, screened cap was placed on top. The test units were held for 6 days in a growth chamber at 25° C. and 70% relative humidity. Plant feeding damage was then visually assessed based on foliage consumed, and larvae were assessed for mortality.

[2] = system: fall armyworm (Spodoptera frugiperda (J. E. Smith)); assay: Test B: control of fall armyworm, foliar spray on corn (maize) plant; details: 1-day-old larvae, assessed after 6 days
Method: as §1
For evaluating control of fall armyworm (Spodoptera frugiperda (J. E. Smith)) the test unit consisted of a small open container with a 4-5-day-old corn (maize) plant inside. This was pre-infested with 10-15 1-day-old larvae on a piece of insect diet.
Test compounds were formulated and sprayed at 250 and/or 50 ppm. After spraying of the formulated test compound, the test units were maintained in a growth chamber for 6 days at 25° C. and 70% relative humidity. Plant feeding damage was then visually assessed based on foliage consumed, and larvae were assessed for mortality.

[3] = system: potato leafhopper (Empoasca fabae (Harris)); assay: Test D: control of potato leafhopper through contact and/or systemic means; details: 144 h, Soleil bean plant, adults, assessed after 6 days; for mortality at 250 ppm: sprayed at 250 ppm
Method: as §1
For evaluating control of potato leafhopper (Empoasca fabae (Harris)) through contact and/or systemic means, the test unit consisted of a small open container with a 5-6-day-old Soleil bean plant (primary leaves emerged) inside. White sand was added to the top of the soil, and one of the primary leaves was excised prior to application of the test compound.
Test compounds were formulated and sprayed at 250 and/or 50 ppm. After spraying of the formulated test compound, the test units were allowed to dry for 1 hour before they were post-infested with 5 potato leafhoppers (18-to-21-day-old adults). A black, screened cap was placed on the top of the test unit, and the test units were held for 6 days in a growth chamber at 20° C. and 70% relative humidity. Each test unit was then visually assessed for insect mortality.

[4] = system: corn planthopper (Peregrinus maidis (Ashmead)); assay: Test C: control of corn planthopper through contact and/or systemic means; details: 144 h, corn (maize) plant, nymphs, assessed after 6 days
Method: as §1
For evaluating control of corn planthopper (Peregrinus maidis (Ashmead)) through contact and/or systemic means, the test unit consisted of a small open container with a 3-4-day-old corn (maize) plant inside. White sand was added to the top of the soil prior to application of the test compound.
Test compounds were formulated and sprayed at 250 and/or 50 ppm. After spraying of the formulated test compound, the test units were allowed to dry for 1 h before they were post-infested with ˜15-20 nymphs (18-to-21-day-old). A black, screened cap was placed on the top of each test unit, and the test units were held for 6 days in a growth chamber at 22-24° C. and 50-70% relative humidity. Each test unit was then visually assessed for insect mortality.

2-[3-cyclohexyl-4-[[4-(trifluoromethyl)-1-piperidinyl]methyl]-1H-pyrazol-1-yl]-4-(trifluoromethyl)pyridine [Compound 23]
control efficacy (40% or less feeding damage and/or 100% mortality) ([1]; sprayed at 50 ppm): very good to excellent levels of control efficacy
control efficacy (40% or less feeding damage and/or 100% mortality) ([1]; sprayed at 250 ppm): very good to excellent levels of control efficacy
control efficacy (40% or less feeding damage and/or 100% mortality) ([2]; sprayed at 50 ppm): very good to excellent levels of control efficacy
control efficacy (40% or less feeding damage and/or 100% mortality) ([2]; sprayed at 250 ppm): very good to excellent levels of control efficacy

N#CC1CCN(Cc2cn(-c3ccc(Cl)c(Cl)c3)nc2Cc2ccccc2F)CC1 [Compound 1]
control efficacy (40% or less feeding damage and/or 100% mortality) ([1]; sprayed at 50 ppm): very good to excellent levels of control efficacy

N#CC1CCN(Cc2cn(-c3ccc(Cl)c(Cl)c3)nc2Cc2ccc(F)cc2)CC1 [Compound 2]
control efficacy (40% or less feeding damage and/or 100% mortality) ([1]; sprayed at 50 ppm): very good to excellent levels of control efficacy

N#CC1CCN(Cc2cn(-c3ccc(Cl)cc3)nc2C=CCl)CC1 [Compound 9]
control efficacy (40% or less feeding damage and/or 100% mortality) ([2]; sprayed at 50 ppm): very good to excellent levels of control efficacy
control efficacy (40% or less feeding damage and/or 100% mortality) ([2]; sprayed at 250 ppm): very good to excellent levels of control efficacy

N#CC1CCN(Cc2cn(-c3ccc(Cl)c(Cl)c3)nc2C2CC2)CC1 [Compound 12]
control efficacy (40% or less feeding damage and/or 100% mortality) ([1]; sprayed at 50 ppm): very good to excellent levels of control efficacy

CC(=O)N[C@H]1CCN(Cc2cn(-c3ccc(Cl)c(Cl)c3)nc2C2CC2)C1 [Compound 13]
control efficacy (40% or less feeding damage and/or 100% mortality) ([1]; sprayed at 50 ppm): very good to excellent levels of control efficacy

CCc1nn(-c2ccc(Cl)c(Cl)c2)cc1CN1CCC(C#N)CC1 [Compound 14]
control efficacy (40% or less feeding damage and/or 100% mortality) ([1]; sprayed at 50 ppm): very good to excellent levels of control efficacy

C=Cc1nn(-c2ccc(Cl)c(Cl)c2)cc1CN1CCC(C#N)CC1 [Compound 15]
control efficacy (40% or less feeding damage and/or 100% mortality) ([1]; sprayed at 50 ppm): very good to excellent levels of control efficacy

N#CC1CCN(Cc2cn(-c3ccc(Cl)c(Cl)c3)nc2C2CCCCC2)CC1 [Compound 19]
control efficacy (40% or less feeding damage and/or 100% mortality) ([2]; sprayed at 50 ppm): very good to excellent levels of control efficacy
control efficacy (40% or less feeding damage and/or 100% mortality) ([2]; sprayed at 250 ppm): very good to excellent levels of control efficacy

O=C(NC1CCN(Cc2cn(-c3ccc(Cl)c(Cl)c3)nc2C2CCCCC2)C1)C1CC1 (centres unmarked) [Compound 20]
control efficacy (40% or less feeding damage and/or 100% mortality) ([1]; sprayed at 250 ppm): very good to excellent levels of control efficacy
control efficacy (40% or less feeding damage and/or 100% mortality) ([2]; sprayed at 250 ppm): very good to excellent levels of control efficacy

Cc1nn(-c2ccc(Cl)c(Cl)c2)cc1CN1CCC(C#N)CC1 [Compound 21]
control efficacy (40% or less feeding damage and/or 100% mortality) ([1]; sprayed at 50 ppm): very good to excellent levels of control efficacy
control efficacy (40% or less feeding damage and/or 100% mortality) ([1]; sprayed at 250 ppm): very good to excellent levels of control efficacy

Cc1nn(-c2ccc(Cl)c(Cl)c2)cc1CN1CCC(NC(=O)C2CC2)C1 (centres unmarked) [Compound 22]
control efficacy (40% or less feeding damage and/or 100% mortality) ([1]; sprayed at 50 ppm): very good to excellent levels of control efficacy
control efficacy (40% or less feeding damage and/or 100% mortality) ([1]; sprayed at 250 ppm): very good to excellent levels of control efficacy

FC(F)(F)C1CCN(Cc2cn(-c3ccc(Cl)c(Cl)c3)nc2C2CCC2)CC1 [Compound 28]
control efficacy (40% or less feeding damage and/or 100% mortality) ([1]; sprayed at 50 ppm): very good to excellent levels of control efficacy
control efficacy (40% or less feeding damage and/or 100% mortality) ([1]; sprayed at 250 ppm): very good to excellent levels of control efficacy
control efficacy (40% or less feeding damage and/or 100% mortality) ([2]; sprayed at 50 ppm): very good to excellent levels of control efficacy
control efficacy (40% or less feeding damage and/or 100% mortality) ([2]; sprayed at 250 ppm): very good to excellent levels of control efficacy

C[Si](C)(C)C#Cc1nn(-c2ccc(Cl)c(Cl)c2)cc1CN1CCC(C#N)CC1 [Compound 29]
control efficacy (40% or less feeding damage and/or 100% mortality) ([2]; sprayed at 50 ppm): very good to excellent levels of control efficacy

C#Cc1nn(-c2ccc(Cl)c(Cl)c2)cc1CN1CCC(C#N)CC1 [Compound 31]
control efficacy (40% or less feeding damage and/or 100% mortality) ([1]; sprayed at 50 ppm): very good to excellent levels of control efficacy

N#CC1CCN(Cc2cn(-c3ccc(Cl)c(Cl)c3)nc2C#Cc2ccccc2)CC1 [Compound 32]
control efficacy (40% or less feeding damage and/or 100% mortality) ([1]; sprayed at 50 ppm): very good to excellent levels of control efficacy

N#CC1CCN(Cc2cn(-c3cc(C(F)(F)F)ccn3)nc2C2CC2)CC1 [Compound 35]
control efficacy (40% or less feeding damage and/or 100% mortality) ([1]; sprayed at 50 ppm): very good to excellent levels of control efficacy
control efficacy (40% or less feeding damage and/or 100% mortality) ([1]; sprayed at 250 ppm): very good to excellent levels of control efficacy
control efficacy (40% or less feeding damage and/or 100% mortality) ([2]; sprayed at 50 ppm): very good to excellent levels of control efficacy
control efficacy (40% or less feeding damage and/or 100% mortality) ([2]; sprayed at 250 ppm): very good to excellent levels of control efficacy

FC(F)(F)C1CCN(Cc2cn(-c3ccc(Cl)cn3)nc2C2CCCC2)CC1 [Compound 36]
control efficacy (40% or less feeding damage and/or 100% mortality) ([1]; sprayed at 50 ppm): very good to excellent levels of control efficacy
control efficacy (40% or less feeding damage and/or 100% mortality) ([1]; sprayed at 250 ppm): very good to excellent levels of control efficacy
control efficacy (40% or less feeding damage and/or 100% mortality) ([2]; sprayed at 50 ppm): very good to excellent levels of control efficacy
control efficacy (40% or less feeding damage and/or 100% mortality) ([2]; sprayed at 250 ppm): very good to excellent levels of control efficacy

FC(F)(F)C1CCN(Cc2cn(-c3cc(Cl)ccn3)nc2C2CCCC2)CC1 [Compound 37]
control efficacy (40% or less feeding damage and/or 100% mortality) ([1]; sprayed at 50 ppm): very good to excellent levels of control efficacy
control efficacy (40% or less feeding damage and/or 100% mortality) ([1]; sprayed at 250 ppm): very good to excellent levels of control efficacy
control efficacy (40% or less feeding damage and/or 100% mortality) ([2]; sprayed at 50 ppm): very good to excellent levels of control efficacy
control efficacy (40% or less feeding damage and/or 100% mortality) ([2]; sprayed at 250 ppm): very good to excellent levels of control efficacy

N#CC1CCN(Cc2cn(-c3cc(Cl)ccn3)nc2C2CCCC2)CC1 [Compound 38, 1-[[1-(4-chloro-2-pyridinyl)-3-cyclopentyl-1H-pyrazol-4-yl]methyl]-4-piperidinecarbonitrile]
control efficacy (40% or less feeding damage and/or 100% mortality) ([1]; sprayed at 50 ppm): very good to excellent levels of control efficacy
control efficacy (40% or less feeding damage and/or 100% mortality) ([1]; sprayed at 250 ppm): very good to excellent levels of control efficacy
control efficacy (40% or less feeding damage and/or 100% mortality) ([2]; sprayed at 50 ppm): very good to excellent levels of control efficacy
control efficacy (40% or less feeding damage and/or 100% mortality) ([2]; sprayed at 250 ppm): very good to excellent levels of control efficacy
mortality at 250 ppm [3]: ≥ 80%

N#CC1CCN(Cc2cn(-c3cc(C(F)(F)F)ccn3)nc2C2CCC2)CC1 [Compound 46, 1-[[3-cyclobutyl-1-[4-(trifluoromethyl)-2-pyridinyl]-1H-pyrazol-4-yl]methyl]-4-piperidinecarbonitrile]
control efficacy (40% or less feeding damage and/or 100% mortality) ([1]; sprayed at 50 ppm): very good to excellent levels of control efficacy
control efficacy (40% or less feeding damage and/or 100% mortality) ([1]; sprayed at 250 ppm): very good to excellent levels of control efficacy
control efficacy (40% or less feeding damage and/or 100% mortality) ([2]; sprayed at 50 ppm): very good to excellent levels of control efficacy
control efficacy (40% or less feeding damage and/or 100% mortality) ([2]; sprayed at 250 ppm): very good to excellent levels of control efficacy
mortality at 250 ppm [3]: ≥ 80%

CC(C)c1nn(-c2cc(C(F)(F)F)ccn2)cc1CN1CCC(C(F)(F)F)CC1 [Compound 54, 2-[3-(1-methylethyl)-4-[[4-(trifluoromethyl)-1-piperidinyl]methyl]-1H-pyrazol-1-yl]-4-(trifluoromethyl)pyridine]
mortality at 50 ppm ([4]; sprayed at 50 ppm): ≥ 80%
mortality at 250 ppm ([4]; sprayed at 250 ppm): ≥ 80%
mortality at 50 ppm ([3]; sprayed at 50 ppm): ≥ 80%
mortality at 250 ppm [3]: ≥ 80%
